Measured values from patent US7029680B1, “Delivery of immunogenic molecules vis HBsAg particles” (Yissum Research Development Company of the Hebrew …, priority 1998, dated 2006).

B1: IL-12 alone: cytokine IL-12 without HBsAg (control) (protein, UniProt P29459 23-219; P29460 23-328, looked up)
Interleukin-12 subunit alpha: RNLPVATPDPGMFPCLHHSQNLLRAVSNMLQKARQTLEFYPCTSEEIDHEDITKDKTSTVEACLPLELTKNESCLNSRETSFITNGSCLASRKTSFMMALCLSSIYEDLKMYQVEFKTMNAKLLMDPKRQIFLDQNMLAVIDELMQALNFNSETVPQKSSLEEPDFYKTKIKLCILLHAFRIRAVTIDRVMSYLNAS
Interleukin-12 subunit beta: IWELKKDVYVVELDWYPDAPGEMVVLTCDTPEEDGITWTLDQSSEVLGSGKTLTIQVKEFGDAGQYTCHKGGEVLSHSLLLLHKKEDGIWSTDILKDQKEPKNKTFLRCEAKNYSGRFTCWWLTTISTDLTFSVKSSRGSSDPQGVTCGAATLSAERVRGDNKEYEYSVECQEDSACPAAEESLPIEVMVDAVHKLKYENYTSSFFIRDIIKPDPPKNLQLKPLKNSRQVEVSWEYPDTWSTPHSYFSLTFCVQVQGKSKREKKDRVFTDKTSATVICRKNASISVRAQDRYYSSSWSEWASVPCS

Key:
[1] = tested on: OVA-specific cells (EG7); assay: Anti-OVA CTL response, 51Cr release cytolytic assay after immunization; format: in vivo; conditions: F1 (H-2d/b) mice; lysis of EG7 vs EL4; FIG. 4B
Protocol: (§1) OVA/HBsAg particles, prepared as described above, were isolated, washed, and adjusted to the appropriate concentration for immunization. The following compositions were injected into F1 (H-2d/b) mice, each in 50 μl PBS (phosphate buffered saline): (a) 1 μg HBsAg particles (without adjuvants); (b) 100 μg native OVA; and (c) 1 μg HBsAg/OVA, as described in Section A above.
(§2) For evaluation of the CTL response, spleen or lymph nodes cells, obtained from immunized mice seven days to five weeks post-vaccination, were specifically restimulated in vitro for five days with syngeneic, irradiated OVA- or HBsAg-peptide-pulsed tumor cells. (The latter cells had been incubated in vitro with the recombinant HBsAg particles for 2 hours at 37° C.) The cells were harvested and tested in a 4-hour ^51Cr release cytolytic assay against antigen-bearing and non-antigen-bearing syngeneic targets. Lysis of cells specific for the HBsAg S protein (P815/S), or for OVA (EG7), was compared to that for nonspecific cells (P815 or EL4, respectively). The EG7 cells are EL4 cells which have been stably transfected with an expression plasmid encoding OVA.

[2] = tested on: OVA; assay: Anti-OVA humoral (serum antibody) response after immunization; format: in vivo; conditions: F1 (H-2d/b) mice, FIG. 4D
Protocol: as §1, §2

[3] = tested on: EL4 cells which had been pulsed with HBsAg; assay: Anti-HBsAg CTL response in 'nonresponder' mice, 51Cr release assay; format: in vivo, 'nonresponder' mice (H-2^b C57BL/6); conditions: nonresponder C57BL/6 mice; splenocytes restimulated with HBsAg-pulsed RBL5 cells; FIG. 6A-G
Protocol: To produce the data shown in FIG. 6, several cytokines were loaded into HBsAg particles, following a protocol such as outlined above for OVA, with incubation carried out at 45° C. It was estimated that approximately 10 ng of cytokine was incorporated per μg of HBsAg particles (about 1% incorporation) at this temperature. Groups of ‘nonresponder’ mice (H-2^b C57BL/6) were immunized with HBsAg particles, with and without incorporated cytokines, or with cytokine alone (FIG. 6G), in the amounts shown below: • A: 1 μg ‘naked’ HBsAg particles • B–F: 1 μg HBsAg/cytokine, where the cytokine was: • (b) IL-12, (c) IFN-γ, (d) IL-2, (e) IL-4, • (f) IL-1 β peptide • G: 1 μg IL-12 (control) • H: 1 μg HBsAg/IL-12
After 12 days, splenocytes from the immunized mice were restimulated in vitro for 5 days with HBsAg-pulsed, syngeneic irradiated RBL5 lymphoma cells. For control experiment H, the splenocytes were restimulated with non-pulsed, syngeneic RBL5 cells. The splenocytes (effector cells) were then cocultured with ^51Cr-labeled target cells, and the CTL response was measured by a standard ^51Cr release assay. The target cells were either non-pulsed EL4 cells (open circles in FIGS. 6A–G), or EL4 cells which had been pulsed with HBsAg (solid circles).

Molecule | anti-OVA CTL response [1] | anti-OVA humoral response [2] | anti-HBsAg CTL response [3]
ovalbumin [OVA alone, native ovalbumin protein, model antigen] | no CTL response and none | elicited a humoral response | –
B1 | – | – | no CTL response
